A short description of one series: Mouse pharmacokinetics. It is filed as in vivo. The following applies: CD-1 mice, 5 mg/kg, P.O. The method, then:
Test compound was intravenously (IV) or orally (PO) administrated to CD-1 mice. Blood samples were collected at different time points as indicated below. The concentration of the compounds in the mouse plasma was determined by LC-MS/MS and related parameters were calculated. The details are as follows: the required amount of the test product was taken to prepare a solution of the required concentration for intravenous injection or oral administration. The age of the animals was about 6-8 weeks at the beginning of the dosing experiment. Blood sampling time points are 0.083 h, 0.25 h, 0.5 h, 1 h, 2 h, 4 h, 8 h and 24 h after compound administration. The Phoenix WinNonlin 7.0 software was used to calculate the pharmacokinetic parameters through the blood drug concentration data at different time points.

The target in series [1] is T1, JAK1 (Homo sapiens, UniProt P23458). In words: Human whole blood JAK1 activity assay: IL-6-induced STAT1 phosphorylation (CD4+ T cells). It is filed as cell-based. Also on record: endogenous in cells. The following applies: IL-6 (100 ng/mL), read-out: IC50_JAK1 (IL6/pSTAT1). The method, then:
(§1) Compound inhibition of JAK1 and JAK2 activities was measured in human whole blood: inhibition of IL-6-induced STAT1 phosphorylation (CD4+ T cells) and GM-CSF-induced STAT5 phosphorylation (CD33+ cells) in human whole blood were respectively analysized. The experimental procedures are shown as follows:
(§2) 1) Human whole blood was collected into heparinized tubes, and seeded in a 96-well plate at 100 µL/well, and incubated in a cell incubator for 15 minutes.
(§3) 2) Different concentrations of compounds (25 μL/well) were added into desired wells and incubated at 37° C. under 5% CO2 for 30 minutes. The final concentration of DMSO was 0.2%.
(§4) 3) Blood cells were stimulated with recombinant human IL-6 (100 ng/mL) or recombinant human GM-CSF (20 ng/mL) or PBS at 37° C. and 5% CO2 for 20 minutes.
(§5) 4) The blood was treated with pre-warmed 1× Lysis/Fixing Buffer (BD Phosflow) at 37° C. for 10 minutes to lyse erythrocytes and fix leukocytes.
(§6) 5) After the cells were permeabilized with pre-cooled buffer (Perm buffer III) on ice for 60 minutes, anti-pSTAT1 and anti-CD4 antibodies (IL-6 stimulated samples) or anti-pSTAT5 and anti-CD33 antibodies (GM-CSF stimulated samples) were used to stain the samples at 4° C. for 60 minutes.
(§7) 7) The cells were washed twice and resuspended in buffer for FACS analysis (Thermo Attune NxT).

The target of series [2] is T2, JAK2 (Homo sapiens, UniProt O60674). In words: Human whole blood JAK2 activity assay: GM-CSF-induced STAT5 phosphorylation (CD33+ cells). It is filed as cell-based. Also on record: endogenous in cells. The following applies: GM-CSF (20 ng/mL), read-out: IC50_JAK2 (GM-CSF/pSTAT5). As for the experimental part: as §1, §2, §3, §4, §5, §6, §7
T2 sequence (O60674 whole entry): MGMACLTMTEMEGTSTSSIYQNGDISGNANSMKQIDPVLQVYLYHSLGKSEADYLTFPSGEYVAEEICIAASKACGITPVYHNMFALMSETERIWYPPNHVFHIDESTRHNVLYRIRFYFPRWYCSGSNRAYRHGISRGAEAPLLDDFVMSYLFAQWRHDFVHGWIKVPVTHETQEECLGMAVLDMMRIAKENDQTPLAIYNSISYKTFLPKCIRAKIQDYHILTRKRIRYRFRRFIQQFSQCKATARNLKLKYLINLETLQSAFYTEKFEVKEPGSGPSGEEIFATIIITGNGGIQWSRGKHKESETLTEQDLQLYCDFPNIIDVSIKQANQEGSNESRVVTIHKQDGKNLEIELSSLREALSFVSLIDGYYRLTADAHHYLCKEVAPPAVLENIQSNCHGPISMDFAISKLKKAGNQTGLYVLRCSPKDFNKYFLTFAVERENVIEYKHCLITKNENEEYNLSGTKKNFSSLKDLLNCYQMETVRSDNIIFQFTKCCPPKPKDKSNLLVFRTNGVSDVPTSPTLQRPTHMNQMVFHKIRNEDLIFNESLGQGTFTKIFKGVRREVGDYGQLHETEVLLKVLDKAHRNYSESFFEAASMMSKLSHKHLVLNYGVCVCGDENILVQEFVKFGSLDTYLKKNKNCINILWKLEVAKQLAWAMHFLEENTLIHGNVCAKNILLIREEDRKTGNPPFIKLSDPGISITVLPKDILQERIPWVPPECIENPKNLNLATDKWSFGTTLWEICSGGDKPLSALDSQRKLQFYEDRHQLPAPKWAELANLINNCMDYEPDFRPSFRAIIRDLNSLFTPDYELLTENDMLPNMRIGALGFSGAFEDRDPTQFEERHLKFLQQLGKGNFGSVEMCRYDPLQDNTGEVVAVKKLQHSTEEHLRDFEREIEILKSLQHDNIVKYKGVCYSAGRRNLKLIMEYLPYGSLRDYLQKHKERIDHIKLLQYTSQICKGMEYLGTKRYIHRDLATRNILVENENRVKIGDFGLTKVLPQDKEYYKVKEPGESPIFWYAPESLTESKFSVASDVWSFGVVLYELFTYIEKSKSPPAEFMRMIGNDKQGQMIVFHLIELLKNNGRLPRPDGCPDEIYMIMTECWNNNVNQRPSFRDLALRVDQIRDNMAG
Series [3] addresses T1, JAK1. Briefly: In vitro JAK1 kinase activity assay (HTRF kinEASE TK). It is filed as biochemical. Also on record: purchased Thermo Fisher. The conditions noted are these: 1.1 μM ATP, 60 minutes, room temperature; read-out: IC50 JAK1 (enzyme activity assay). A digest of the protocol: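 HTRF TK assay: 0.5 ng/μl JAK1, 1 μM biotinylated TK peptide, 1.1 μM ATP with MgCl2, MnCl2, DTT, 60 min at room temperature; compounds 10 μM to 0.04 nM, 1% DMSO. Overnight detection with SA-XL665 and TK-antibody; 665/620 ratio to % inhibition, IC50 by 4-parameter fit.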
(In general: TR-FRET usually uses a lanthanide donor and a delayed reading to cut background.)

For series [4], the target named is T2, JAK2. Briefly: In vitro JAK2 kinase activity assay (HTRF kinEASE TK). It is filed as biochemical. Also on record: purchased Carna Biosciences. The following applies: 2.7 μM ATP, 25 minutes, room temperature; read-out: IC50 JAK2 (enzyme activity assay). A digest of the protocol:
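HTRF kinase reaction with 0.001 ng/μl recombinant human JAK2, 1 μM biotinylated TK substrate peptide, 2.7 μM ATP, 5 mM MgCl2, 1 mM DTT, 25 min at room temperature; compounds 10 μM–0.04 nM, 4-fold steps, duplicate, 1% DMSO. Detection overnight; 665/620 ratio converted to % inhibition, IC50 by 4-parameter fit.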

Series [5] deals with T1, JAK1. In words: Cellular JAK1 activity assay: IL-6-stimulated STAT3 phosphorylation in TF-1 cells. Format: cell-based. Also on record: endogenous in cells; host or cells: TF-1 cells (ATCC). The following applies: IL-6 (30 ng/mL), pSTAT3, read-out: IC50 Cell JAK1.
For series [6], the target named is T2, JAK2. In words: Cellular JAK2 activity assay: EPO-stimulated STAT5 phosphorylation in TF-1 cells. It is filed as cell-based. Also on record: endogenous in cells; host or cells: TF-1 cells (ATCC). The following applies: EPO (10 U/mL), pSTAT5, read-out: IC50 Cell JAK2.

Here are results for 1 compound from patent US12234232B2, “Aromatic heterocyclic compound with kinase inhibitory activity” (SHANGHAI ENNOVABIO PHARMACEUTICALS CO., LTD., priority 2018, dated 2025).

T1 sequence (P23458 whole entry): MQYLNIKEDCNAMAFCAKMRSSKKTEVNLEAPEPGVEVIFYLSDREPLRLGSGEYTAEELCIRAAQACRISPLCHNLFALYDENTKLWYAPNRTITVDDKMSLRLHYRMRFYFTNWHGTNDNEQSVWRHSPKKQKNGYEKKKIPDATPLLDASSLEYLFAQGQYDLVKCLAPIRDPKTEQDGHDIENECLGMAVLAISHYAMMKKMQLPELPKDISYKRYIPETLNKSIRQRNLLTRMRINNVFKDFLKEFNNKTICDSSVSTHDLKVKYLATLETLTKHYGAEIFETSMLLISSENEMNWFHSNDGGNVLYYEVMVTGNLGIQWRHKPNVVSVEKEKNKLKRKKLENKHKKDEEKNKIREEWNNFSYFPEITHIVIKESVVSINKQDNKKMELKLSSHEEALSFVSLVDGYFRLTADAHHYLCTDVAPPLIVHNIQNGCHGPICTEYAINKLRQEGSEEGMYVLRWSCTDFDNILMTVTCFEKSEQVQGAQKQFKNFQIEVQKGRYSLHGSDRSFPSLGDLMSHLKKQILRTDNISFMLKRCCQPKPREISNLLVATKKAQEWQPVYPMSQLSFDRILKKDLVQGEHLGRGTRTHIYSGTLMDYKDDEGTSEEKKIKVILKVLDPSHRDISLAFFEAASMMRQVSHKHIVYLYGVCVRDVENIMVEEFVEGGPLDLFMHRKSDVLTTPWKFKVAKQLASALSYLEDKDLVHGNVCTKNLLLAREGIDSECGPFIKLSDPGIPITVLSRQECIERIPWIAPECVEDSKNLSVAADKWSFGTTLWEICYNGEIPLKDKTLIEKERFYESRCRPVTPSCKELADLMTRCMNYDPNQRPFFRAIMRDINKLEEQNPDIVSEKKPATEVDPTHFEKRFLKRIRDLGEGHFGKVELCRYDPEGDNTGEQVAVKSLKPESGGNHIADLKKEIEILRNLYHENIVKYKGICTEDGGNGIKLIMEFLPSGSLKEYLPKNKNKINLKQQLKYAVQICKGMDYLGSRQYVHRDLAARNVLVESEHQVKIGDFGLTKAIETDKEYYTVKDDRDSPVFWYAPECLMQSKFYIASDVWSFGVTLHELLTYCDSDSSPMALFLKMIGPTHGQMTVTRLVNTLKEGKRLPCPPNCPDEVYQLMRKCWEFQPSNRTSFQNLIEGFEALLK

`CC[C@H](C(=O)Nc1nccc2c(-c3nc(Nc4cn(C)nc4OC)ncc3C)c[nH]c12)N1CCN(C)CC1` [Example 4, (R)—N-(3-(2-((3-Methoxy-1-methyl-1H-pyrazol-4-yl)amino)-5-methylpyrimidin-4-yl)-1H-pyrrolo[2,3-c]pyridin-7-yl)-2-(4-methylpiperazin-1-yl)butanamide] had a F in “Mouse pharmacokinetics” of 106%. The compound further gave a Cmax in the series “Mouse pharmacokinetics” (mouse, po, plasma) of 1060 ng/mL. The half-life in the series “Mouse pharmacokinetics” (mouse, po, plasma) is 3.79 h. Besides, the AUC(0-t) in “Mouse pharmacokinetics” (mouse, po, plasma, read-out: AUC0-24 hr) was 10200 ng·h/mL. For the same compound, the IC50 was less than 500 nM on JAK1 [1]; greater than 20000 nM at JAK2 [2]; less than 5 nM at JAK1 [3]; less than 100 nM at JAK2 [4]; less than 100 nM at JAK1 [5]; less than 10000 nM on JAK2 [6].

As a reminder, the Cmax is the maximum level reached in the sampled fluid or tissue. Usually half-life stands for how long it takes for the measured level to halve. Higher therefore signals slow decline.
